The subject of one experiment is Candida albicans. Put plainly: Antifungal activity against amphotericin B-resistant Candida albicans after 12 to 15 hrs by alamar blue assay. In kind it is functional, organism-based. A general note: The colour change of resazurin is a common sign of viable cells or microbes.
In another experiment the test system is DU-4475. Briefly: Antineoplastic activity against human DU4475 cells after 72 hrs by MTS reduction assay. In kind it is functional, cell-based. The settings on record: DU-4475, 72 h. A general note: Formazan colour is commonly taken as a measure of viable cells.

The term IC50 denotes the concentration that inhibits the measured activity by half. Low readings indicate greater potency, high ones weaker potency.

On to `C=C1CC[C@H](Br)[C@@]2(C)CC[C@@H]3O[C@@]3(C)CC[C@@H](C(C)(C)O)OC(=O)c3ccc(O)c(c3)C[C@H]12` [BROMOPHYCOLIDE F], for which, in the experiment with Candida albicans, the IC50 was determined as 240 µM.

As for `C=C1CC[C@H](Br)[C@@]2(C)CC[C@@H](Br)[C@@](C)(O)CC[C@@H](Br)C(C)(C)OC(=O)c3ccc(O)c(c3)C[C@H]12` [BROMOPHYCOLIDE H], in the experiment with DU-4475, half-maximal inhibition (IC50) was put at 3.88 µM.

Compound `C=C1CC[C@H](Br)[C@@]2(C)CC[C@@H](Br)[C@@](C)(O)CC[C@H](O)C(C)(C)OC(=O)c3ccc(O)c(c3)C[C@H]12` [BROMOPHYCOLIDE I] had a half-inhibitory concentration (IC50) with Candida albicans of 208 µM.

The values above are taken from ChEMBL document CHEMBL1157939, “Bromophycolides C-I from the Fijian red alga Callophycus serratus” (J Nat Prod, 2006).
